What was measured:
Assay in all cases: KinaseProfiler panel
Assay type in all cases: biochemical
Conditions in all cases: activity remaining
[1] = molecular target: A-Raf(h) (Homo sapiens (Human), UniProt P10398); set-up: dose or concentration left out as unconfirmed
[2] = molecular target: ALK1(h) (Homo sapiens (Human), UniProt P37023); set-up: dose or concentration left out as unconfirmed
[3] = molecular target: CaMKIIα(h) (Homo sapiens (Human), UniProt Q9UQM7)
[4] = molecular target: CDK6/cyclinD3(h) (Homo sapiens (Human), UniProt Q00534); set-up: dose or concentration left out as unconfirmed
[5] = molecular target: CLK1(h) (Homo sapiens (Human), UniProt P49759); set-up: dose or concentration left out as unconfirmed
[6] = molecular target: CLK4(h) (Homo sapiens (Human), UniProt Q9HAZ1); set-up: dose or concentration left out as unconfirmed
[7] = molecular target: EphA2(h) (Homo sapiens (Human), UniProt P29317); set-up: dose or concentration left out as unconfirmed
[8] = molecular target: EphB1(h) (Homo sapiens (Human), UniProt P54762); set-up: dose or concentration left out as unconfirmed
[9] = molecular target: Flt4(h) (Homo sapiens (Human), UniProt P35916); set-up: dose or concentration left out as unconfirmed
[10] = molecular target: HRI(h) (Homo sapiens (Human), UniProt Q9BQI3); set-up: dose or concentration left out as unconfirmed
[11] = molecular target: IRAK4(h) (Homo sapiens (Human), UniProt Q9NWZ3); set-up: dose or concentration left out as unconfirmed
[12] = molecular target: LIMK2(h) (Homo sapiens (Human), UniProt P53671); set-up: dose or concentration left out as unconfirmed
[13] = molecular target: LOK(h) (Homo sapiens (Human), UniProt O94804); set-up: dose or concentration left out as unconfirmed
[14] = molecular target: MAPK2(h) (Homo sapiens (Human), UniProt P28482); set-up: dose or concentration left out as unconfirmed
[15] = molecular target: MAPKAP-K2(h) (Homo sapiens (Human), UniProt P49137); set-up: dose or concentration left out as unconfirmed
[16] = molecular target: MEKK3(h) (Homo sapiens (Human), UniProt Q99759); set-up: dose or concentration left out as unconfirmed
[17] = molecular target: Met(h) (Homo sapiens (Human), UniProt P08581); set-up: dose or concentration left out as unconfirmed
[18] = molecular target: MKK6(h) (Homo sapiens (Human), UniProt P52564); set-up: dose or concentration left out as unconfirmed
[19] = molecular target: MRCKα(h) (Homo sapiens (Human), UniProt Q5VT25); set-up: dose or concentration left out as unconfirmed
[20] = molecular target: p70S6K(h) (Homo sapiens (Human), UniProt P23443); set-up: dose or concentration left out as unconfirmed
[21] = molecular target: PAK6(h) (Homo sapiens (Human), UniProt Q9NQU5); set-up: dose or concentration left out as unconfirmed
[22] = molecular target: PIP4K2a(h) (Homo sapiens (Human), UniProt P48426); set-up: dose or concentration left out as unconfirmed
[23] = molecular target: PKA(h) (Homo sapiens (Human), UniProt P17612); set-up: dose or concentration left out as unconfirmed
[24] = molecular target: PKAcβ(h) (Homo sapiens (Human), UniProt P22694); set-up: dose or concentration left out as unconfirmed
[25] = molecular target: PKCε(h) (Homo sapiens (Human), UniProt Q02156); set-up: dose or concentration left out as unconfirmed
[26] = molecular target: PKG1β(h) (Homo sapiens (Human), UniProt Q13976); set-up: dose or concentration left out as unconfirmed
[27] = molecular target: RIPK2(h) (Homo sapiens (Human), UniProt O43353); set-up: dose or concentration left out as unconfirmed
[28] = molecular target: ROCK-II(h) (Homo sapiens (Human), UniProt O75116); set-up: dose or concentration left out as unconfirmed
[29] = molecular target: Ron(h) (Homo sapiens (Human), UniProt Q04912); set-up: dose or concentration left out as unconfirmed
[30] = molecular target: Rsk4(h) (Homo sapiens (Human), UniProt Q9UK32)
[31] = molecular target: Snk(h) (Homo sapiens (Human), UniProt Q9NYY3); set-up: dose or concentration left out as unconfirmed
[32] = molecular target: TBK1(h) (Homo sapiens (Human), UniProt Q9UHD2)
[33] = molecular target: Wee1(h) (Homo sapiens (Human), UniProt P30291); set-up: dose or concentration left out as unconfirmed
Chain of Wee1(h) (P30291 whole entry): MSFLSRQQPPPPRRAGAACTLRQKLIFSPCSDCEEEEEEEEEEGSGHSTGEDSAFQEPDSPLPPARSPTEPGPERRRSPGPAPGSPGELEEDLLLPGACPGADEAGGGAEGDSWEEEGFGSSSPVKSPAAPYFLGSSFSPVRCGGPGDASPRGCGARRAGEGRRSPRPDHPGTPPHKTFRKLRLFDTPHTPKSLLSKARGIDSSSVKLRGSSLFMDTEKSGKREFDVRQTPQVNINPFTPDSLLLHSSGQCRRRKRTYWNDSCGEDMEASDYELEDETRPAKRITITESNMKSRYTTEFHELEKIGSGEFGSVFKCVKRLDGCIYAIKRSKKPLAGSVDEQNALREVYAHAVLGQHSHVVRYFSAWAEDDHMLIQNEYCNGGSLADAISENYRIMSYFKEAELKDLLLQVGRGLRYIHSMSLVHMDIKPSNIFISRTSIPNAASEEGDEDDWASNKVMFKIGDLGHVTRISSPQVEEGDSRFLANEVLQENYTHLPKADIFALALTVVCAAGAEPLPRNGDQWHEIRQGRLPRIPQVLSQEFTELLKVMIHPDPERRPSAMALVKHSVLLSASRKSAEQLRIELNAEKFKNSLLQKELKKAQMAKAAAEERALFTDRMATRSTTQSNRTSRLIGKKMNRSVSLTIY

Chain of ROCK-II(h) (O75116 whole entry): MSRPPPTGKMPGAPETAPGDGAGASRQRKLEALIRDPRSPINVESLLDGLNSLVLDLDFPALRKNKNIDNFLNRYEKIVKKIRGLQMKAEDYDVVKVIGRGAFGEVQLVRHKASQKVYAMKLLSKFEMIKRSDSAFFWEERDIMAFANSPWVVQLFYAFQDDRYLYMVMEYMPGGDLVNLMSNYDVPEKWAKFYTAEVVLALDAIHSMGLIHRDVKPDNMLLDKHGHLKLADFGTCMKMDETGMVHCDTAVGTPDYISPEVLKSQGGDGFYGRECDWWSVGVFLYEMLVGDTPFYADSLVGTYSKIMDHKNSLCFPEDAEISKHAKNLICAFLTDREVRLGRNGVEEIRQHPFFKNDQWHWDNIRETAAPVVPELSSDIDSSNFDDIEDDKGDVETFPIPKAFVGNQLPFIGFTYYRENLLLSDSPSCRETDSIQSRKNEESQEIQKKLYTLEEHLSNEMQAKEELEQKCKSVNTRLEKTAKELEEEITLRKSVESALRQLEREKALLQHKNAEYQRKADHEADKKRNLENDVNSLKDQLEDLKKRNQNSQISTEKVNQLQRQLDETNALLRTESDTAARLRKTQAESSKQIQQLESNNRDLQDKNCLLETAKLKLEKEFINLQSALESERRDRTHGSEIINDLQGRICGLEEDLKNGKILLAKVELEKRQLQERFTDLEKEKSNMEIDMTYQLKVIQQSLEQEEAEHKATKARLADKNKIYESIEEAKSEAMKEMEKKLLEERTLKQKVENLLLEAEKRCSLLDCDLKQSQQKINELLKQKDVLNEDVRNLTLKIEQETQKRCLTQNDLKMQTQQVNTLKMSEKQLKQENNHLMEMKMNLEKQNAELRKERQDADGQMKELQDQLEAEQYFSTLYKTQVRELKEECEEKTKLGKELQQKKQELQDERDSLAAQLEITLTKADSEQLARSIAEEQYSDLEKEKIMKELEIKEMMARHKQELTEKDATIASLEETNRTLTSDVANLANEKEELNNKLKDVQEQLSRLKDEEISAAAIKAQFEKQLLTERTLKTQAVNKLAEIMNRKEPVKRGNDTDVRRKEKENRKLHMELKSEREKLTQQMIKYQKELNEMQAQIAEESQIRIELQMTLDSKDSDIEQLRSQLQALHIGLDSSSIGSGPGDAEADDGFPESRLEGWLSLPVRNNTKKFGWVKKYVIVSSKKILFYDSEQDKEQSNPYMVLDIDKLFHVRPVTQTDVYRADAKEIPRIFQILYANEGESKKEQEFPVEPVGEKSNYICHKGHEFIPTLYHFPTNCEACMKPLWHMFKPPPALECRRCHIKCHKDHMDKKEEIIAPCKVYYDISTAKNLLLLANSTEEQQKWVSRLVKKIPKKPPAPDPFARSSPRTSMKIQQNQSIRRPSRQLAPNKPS
Chain of A-Raf(h) (P10398 whole entry): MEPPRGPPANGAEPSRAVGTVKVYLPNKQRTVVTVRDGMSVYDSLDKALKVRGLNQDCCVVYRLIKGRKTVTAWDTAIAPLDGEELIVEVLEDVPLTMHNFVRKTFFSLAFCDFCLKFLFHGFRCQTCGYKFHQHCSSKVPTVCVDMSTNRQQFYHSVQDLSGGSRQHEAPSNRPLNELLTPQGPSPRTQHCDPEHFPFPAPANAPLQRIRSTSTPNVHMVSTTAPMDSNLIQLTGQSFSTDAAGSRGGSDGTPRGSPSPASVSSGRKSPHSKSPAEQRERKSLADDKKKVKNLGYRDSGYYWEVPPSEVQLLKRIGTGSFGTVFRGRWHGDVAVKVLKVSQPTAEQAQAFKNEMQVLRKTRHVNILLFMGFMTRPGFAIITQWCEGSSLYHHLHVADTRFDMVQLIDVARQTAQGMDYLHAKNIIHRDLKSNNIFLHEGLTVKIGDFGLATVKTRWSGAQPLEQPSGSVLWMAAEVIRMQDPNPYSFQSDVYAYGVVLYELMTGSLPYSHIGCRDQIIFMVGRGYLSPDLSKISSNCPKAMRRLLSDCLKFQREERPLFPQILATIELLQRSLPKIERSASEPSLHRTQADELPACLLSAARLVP
Chain of MKK6(h) (P52564 whole entry): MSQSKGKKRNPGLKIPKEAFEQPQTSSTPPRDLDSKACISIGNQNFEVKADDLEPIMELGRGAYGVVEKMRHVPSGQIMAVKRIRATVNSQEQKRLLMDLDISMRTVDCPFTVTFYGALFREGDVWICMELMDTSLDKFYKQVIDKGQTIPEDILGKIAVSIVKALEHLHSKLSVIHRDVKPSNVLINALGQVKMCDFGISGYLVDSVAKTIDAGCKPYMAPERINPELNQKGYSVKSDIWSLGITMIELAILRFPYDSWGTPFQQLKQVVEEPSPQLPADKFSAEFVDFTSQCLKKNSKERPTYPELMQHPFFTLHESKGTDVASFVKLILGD
Chain of LOK(h) (O94804 whole entry): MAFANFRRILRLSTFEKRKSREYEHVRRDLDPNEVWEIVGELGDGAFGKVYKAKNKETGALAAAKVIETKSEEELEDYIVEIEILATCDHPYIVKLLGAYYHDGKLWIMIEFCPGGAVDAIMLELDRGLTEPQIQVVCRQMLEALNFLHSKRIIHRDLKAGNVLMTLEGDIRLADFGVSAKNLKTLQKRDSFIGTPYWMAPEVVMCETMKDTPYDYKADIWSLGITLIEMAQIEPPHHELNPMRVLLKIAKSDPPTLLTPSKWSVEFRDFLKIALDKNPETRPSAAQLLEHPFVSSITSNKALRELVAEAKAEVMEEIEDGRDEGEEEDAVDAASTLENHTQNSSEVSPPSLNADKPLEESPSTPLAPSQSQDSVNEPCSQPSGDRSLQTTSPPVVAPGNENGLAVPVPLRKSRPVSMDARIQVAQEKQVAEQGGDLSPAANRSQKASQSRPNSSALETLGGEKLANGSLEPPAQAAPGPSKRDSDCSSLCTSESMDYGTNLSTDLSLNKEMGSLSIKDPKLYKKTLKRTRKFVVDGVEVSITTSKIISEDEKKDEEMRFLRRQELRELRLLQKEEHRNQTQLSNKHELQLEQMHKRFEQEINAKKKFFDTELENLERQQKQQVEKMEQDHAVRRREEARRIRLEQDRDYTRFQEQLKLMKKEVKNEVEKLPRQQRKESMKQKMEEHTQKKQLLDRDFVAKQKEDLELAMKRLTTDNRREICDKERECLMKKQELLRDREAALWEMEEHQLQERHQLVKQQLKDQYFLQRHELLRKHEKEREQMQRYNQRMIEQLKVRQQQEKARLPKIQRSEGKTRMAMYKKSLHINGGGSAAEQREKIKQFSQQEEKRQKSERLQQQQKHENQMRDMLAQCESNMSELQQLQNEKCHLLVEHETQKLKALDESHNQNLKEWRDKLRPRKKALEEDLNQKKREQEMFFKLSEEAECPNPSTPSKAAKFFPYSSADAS
Chain of MAPK2(h) (P28482 whole entry): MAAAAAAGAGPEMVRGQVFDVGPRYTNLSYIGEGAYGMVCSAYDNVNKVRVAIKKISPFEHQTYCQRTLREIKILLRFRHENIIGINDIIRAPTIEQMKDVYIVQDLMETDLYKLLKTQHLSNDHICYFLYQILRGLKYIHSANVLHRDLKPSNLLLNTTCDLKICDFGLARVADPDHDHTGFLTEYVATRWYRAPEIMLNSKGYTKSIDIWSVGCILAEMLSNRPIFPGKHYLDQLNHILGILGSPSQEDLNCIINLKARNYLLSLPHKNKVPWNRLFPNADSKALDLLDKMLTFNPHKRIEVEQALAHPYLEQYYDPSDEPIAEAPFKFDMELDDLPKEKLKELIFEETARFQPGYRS
Chain of IRAK4(h) (Q9NWZ3 whole entry): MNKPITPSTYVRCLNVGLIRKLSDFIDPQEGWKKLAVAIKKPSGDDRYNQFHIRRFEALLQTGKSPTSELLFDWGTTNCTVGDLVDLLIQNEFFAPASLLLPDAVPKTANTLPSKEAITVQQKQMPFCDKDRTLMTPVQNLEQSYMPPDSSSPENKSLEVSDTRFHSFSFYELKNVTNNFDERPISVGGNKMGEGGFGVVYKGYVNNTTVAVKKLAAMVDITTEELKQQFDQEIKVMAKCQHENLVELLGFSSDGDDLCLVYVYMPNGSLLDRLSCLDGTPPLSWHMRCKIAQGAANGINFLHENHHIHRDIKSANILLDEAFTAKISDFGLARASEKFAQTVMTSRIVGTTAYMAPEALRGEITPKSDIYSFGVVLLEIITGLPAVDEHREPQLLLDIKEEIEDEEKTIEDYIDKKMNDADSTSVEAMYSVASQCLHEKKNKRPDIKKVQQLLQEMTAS

SMILES: Cc1cc2c(-c3ccc(NC(=O)[C@H](N)CC(C)(C)C)cc3C)ccnc2[nH]1 [Compound F-90, (2R)-2-Amino-4,4-dimethyl-N-[3-methyl-4-(2-methyl-1H-pyrrolo[2,3-b]pyridin-4-yl)phenyl]pentanamide]
- % Activity [1]: 97%
- % Activity [2]: 94%
- % Activity [3]: 88%
- % Activity [4]: 90%
- % Activity [5]: 88%
- % Activity [6]: 85%
- % Activity [7]: 95%
- % Activity [8]: 83%
- % Activity [9]: 96%
- % Activity [10]: 80%
- % Activity [11]: 90%
- % Activity [12]: 72%
- % Activity [13]: 96%
- % Activity [14]: 109%
- % Activity [15]: 72%
- % Activity [16]: 107%
- % Activity [17]: 90%
- % Activity [18]: 101%
- % Activity [19]: 94%
- % Activity [20]: 93%
- % Activity [21]: 101%
- % Activity [22]: 100%
- % Activity [23]: 109%
- % Activity [24]: 12%
- % Activity [25]: 97%
- % Activity [26]: 92%
- % Activity [27]: 97%
- % Activity [28]: 96%
- % Activity [29]: 111%
- % Activity [30]: 101%
- % Activity [31]: 94%
- % Activity [32]: 100%
- % Activity [33]: 94%

From patent US20250243196A1, “CITRON KINASE INHIBITORS” (The Cleveland Clinic Foundation, priority 2021, published 2025)
